Source: PubChem BioAssay AID1963431 (Molecular Pharmacology Branch, DTP, NCI, 2024)

Tested on: Rh18 complex spheroid viability, percent test/control
Assay: Anticancer human tumor Rh18 cell line growth inhibition [Asc];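 also: spheroids exposed to compound for 7 days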;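 as to viability, T/C: 100% = DMSO vehicle control wells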
Settings: for IC50: curve of first compound; for viability, T/C: stronger effect = lower value
Description: Multicellular complex tumor spheroid response to apoptosis pathway targeting inhibitors Alrizomadlin, Pelcitoclax, and Dasminapant in combination with a variety of drugs and investigational agents in selected tumor cell lines
The MDM2 inhibitor alrizomadlin, the Bcl-2/Bcl-xL inhibitor pelcitoclax, and the IAPs inhibitor dasminapant were evaluated both individually and in combination with standard of care and investigational anticancer small molecules within a complex spheroid model of solid tumors. . Complex spheroids include a stromal component modeled by human endothelial cells (HUVEC) and fibroblasts modeled by human mesenchymal stem cells (MSCs). The concentration ranges selected for each drug and investigational agent were based upon clinically achievable concentrations if the clinical Cmax of the agent was known.
Compounds. The drugs and investigational agents: alrizomadlin (APG-115; NSC831270), pelcitoclax (APG-1252; NSC835773), dasminapant (APG-1387;NSC834197), TAK-243 (NSC785004), copanlisib (NSC809693), olaparib (NSC753686), talazoparib (NSC767125), cobimetinib (NSC 768068), eltanexor (KPT-8602, NSC 794443), abemaciclib (NSC 768073), sotorasib (NSC818433), adagrasib (NSC 831453), MRTX-1133 (NSC 836407), Iadademestat (ORY1001, NSC 806812), and RMC-4630 (NSC839698), were obtained from the NCI Developmental Therapeutics Program Chemical Repository. The FDA-approved anticancer drug set is available from the Developmental Therapeutics Program at https://dtp.cancer.gov/organization/dscb/obtaining/available plates.htm. […] The stock solutions were prepared in dimethyl sulfoxide (DMSO, Sigma-Aldrich, St. Louis, MO, cat. D2650) at 800-fold the tested concentration and stored at -70 degrees C prior to their use. All drugs and investigational agents were tested over a range starting from a high concentration at or near the clinical Cmax and decreasing in half-log increments. If the clinical Cmax for an agent had not been determined, the highest concentration tested was 10 microM.
The patient-derived cancer (PDC) cell lines include five colon adenocarcinomas: 186277-243-T-J2-PDC, 616215-338-R-J1-PDC, 439559-082-T-J2-PDC, 463943-066-T-J2-PDC, and 519858-162-T-J1-PDC; three pancreatic carcinomas: 323965-272-R-J2-PDC, 521955-158-R6-J3-PDC, and 521955-158-R2-J5-PDC; two uterine sarcomas: 327498-152-R-J2-PDC and 993429-296-R-J1-PDC; two rhabdomyosarcomas: 755483-174-R-J1-PDC and 772245-204-R-J1-PDC; two soft tissue sarcomas: 126254-015-R-J1-PDC and 494315-158-R-J1-PDC; two malignant fibrous histiocytomas: 317291-083-R-J1-PDC and 596521-263-R-J1-PDC; two breast carcinomas: 171881-019-R-J1-PDC and 885512-296-R-J2-PDC; and one ovarian carcinoma: 6556581-035-R-J-PDC were obtained from the NCI PDMR, (https://pdmr.cancer.gov). The established cell lines HSSY-2 synovial sarcoma (RRID:CVCL 8719), SYO-1 synovial sarcoma (RRID:CVCL_7146), MPNST malignant peripheral neural sheath tumor were obtained from the Sloan Kettering Institute. The following established cell lines were purchased from the American Type Culture Collection (ATCC, Manassas, VA), Sor the received from the NCI repository:, PANC-1 pancreatic carcinoma (CRL-1469, RRID:CVCL_0480), OVCAR-5 ovarian carcinoma (RRID:CVCL_1628), OVCAR-8 ovarian carcinoma (RRID:CVCL_1629), , MCF-7 breast carcinoma (CRL-12584, RRID:CVCL_0031), MDA-MB-231 breast carcinoma (CRL-12532, RRID:CVCL_0062), NCI-H1876 small cell lung carcinoma (CRL-5902, RRID:CVCL_1503), NCI-H510A small cell lung carcinoma (HTB-184, RRID:CVCL_1565), NCI-H1417 (CRL-5869, RRID:CVCL_1469), and NCI-H196 small cell lung carcinoma (CRL-5823, RRID:CVCL_1509). Dr. Peter Houghton (Greehey Children's Cancer Research Institute, University of Texas Health Science Center, San Antonio, TX) provided Rh-18 rhabdomyosarcoma (RRID:CVCL_1659). Pooled donor human umbilical vein endothelial cells (HUVEC, Lonza, cat. CC-2519) and human mesenchymal stem cells (hMSC, Lonza, cat. PT-2501) were purchased from Lonza (Walkersville, MD).
Cell Culture. […]

CCN1CCN(Cc2ccc(Nc3ncc(F)c(-c4cc(F)c5nc(C)n(C(C)C)c5c4)n3)nc2)CC1 + CNC(C)C(=O)NC1CN(S(=O)(=O)c2cccc(S(=O)(=O)N3CCC4CCC(C(=O)NC(c5ccccc5)c5ccccc5)N4C(=O)C(NC(=O)C(C)NC)C3)c2)CCC2CCC(C(=O)NC(c3ccccc3)c3ccccc3)N2C1=O
IC50 (second compound 0.01 µM): < 3.16 nM
IC50 (second compound 0.0316 µM): < 3.16 nM
IC50 (second compound 0.1 µM): < 3.16 nM
IC50 (second compound 0.316 µM): < 3.16 nM
IC50 (second compound 1 µM): < 3.16 nM
viability, T/C (second compound 0.01 µM, first compound 0.00316 µM): 57%
viability, T/C (second compound 0.01 µM, first compound 0.01 µM): 50%
viability, T/C (second compound 0.01 µM, first compound 0.0316 µM): 39.2%
viability, T/C (second compound 0.01 µM, first compound 0.1 µM): 40.6%
viability, T/C (second compound 0.01 µM, first compound 0.316 µM): 58.6%
viability, T/C (second compound 0.01 µM, first compound 1 µM): 86.7%
viability, T/C (second compound 0.0316 µM, first compound 0.00316 µM): 47.7%
viability, T/C (second compound 0.0316 µM, first compound 0.01 µM): 46.1%
viability, T/C (second compound 0.0316 µM, first compound 0.0316 µM): 39.6%
viability, T/C (second compound 0.0316 µM, first compound 0.1 µM): 38%
viability, T/C (second compound 0.0316 µM, first compound 0.316 µM): 48.7%
viability, T/C (second compound 0.0316 µM, first compound 1 µM): 90.9%
viability, T/C (second compound 0.1 µM, first compound 0.00316 µM): 47.1%
viability, T/C (second compound 0.1 µM, first compound 0.01 µM): 47.5%
viability, T/C (second compound 0.1 µM, first compound 0.0316 µM): 35.2%
viability, T/C (second compound 0.1 µM, first compound 0.1 µM): 40.1%
viability, T/C (second compound 0.1 µM, first compound 0.316 µM): 48.3%
viability, T/C (second compound 0.1 µM, first compound 1 µM): 53.8%
viability, T/C (second compound 0.316 µM, first compound 0.00316 µM): 59.2%
viability, T/C (second compound 0.316 µM, first compound 0.01 µM): 47.2%
viability, T/C (second compound 0.316 µM, first compound 0.0316 µM): 38.3%
viability, T/C (second compound 0.316 µM, first compound 0.1 µM): 35.7%
viability, T/C (second compound 0.316 µM, first compound 0.316 µM): 44.4%
viability, T/C (second compound 0.316 µM, first compound 1 µM): 67.4%
viability, T/C (second compound 1 µM, first compound 0.00316 µM): 34.7%
viability, T/C (second compound 1 µM, first compound 0.01 µM): 30%
viability, T/C (second compound 1 µM, first compound 0.0316 µM): 30.6%
viability, T/C (second compound 1 µM, first compound 0.1 µM): 29.5%
viability, T/C (second compound 1 µM, first compound 0.316 µM): 38.7%
viability, T/C (second compound 1 µM, first compound 1 µM): 60.7%
